From patent US8044071B2, “Method for reducing side effects of CB2 receptor agonist therapy using a combination of a selective CB2 receptor agonist and a selective CB1 receptor antagonist” (Abbott Laboratories, priority 2007, dated 2011)
Read-outs that look alike come from different tables or passages of the source.

Legend:
[1] = system: skin incision model of postoperative pain; assay: Skin incision model of postoperative pain (tactile allodynia, von Frey); format: in vivo; conditions: rat; for analgesia (tactile allodynia), agonist after rimonabant: 30 μmol/kg i.p. given 15 min after rimonabant 30 μmol/kg i.p.; for withdrawal threshold for the incisional paw (allodynia): 10 and 30 μmol/kg i.p., two hours after surgery
Source text: Adult male Sprague-Dawley rats (250-300 g body weight, Charles River Laboratories, Portage, Mich.) were used. Animal handling and experimental protocols were approved by the Institutional Animal Care and Use Committee (IACUC) at Abbott Laboratories. For all surgical procedures, animals were maintained under halothane anesthesia (4% to induce, 2% to maintain), and the incision sites were sterilized using a 10% povidone-iodine solution prior to and after surgeries.
A skin incision model of postoperative pain was produced using the procedures described in Brennan et al., 1996, Pain, 64, 493. All rats were anesthetized with isoflurane delivered via a nose cone. Right hind paw incision was performed following sterilization procedures. The plantar aspect of the […] hind paw was placed through a hole in a sterile plastic drape. A 1-cm longitudinal incision was made through the skin and fascia of the plantar aspect of the hind paw, starting 0.5 cm from the proximal edge of the heel and extending towards the toes, the plantar muscle was elevated and incised longitudinally leaving the muscle origin and insertion points intact. The skin was then closed with two mattress sutures (5-0 nylon). After surgery, animals were then allowed to recover for 2 hours, at which time tactile allodynia was assessed as described below. To evaluate the anti-nociceptive effects, animals were i.p. administered vehicle or test compound 90 minutes following skin incision and tactile allodynia was typically assessed 30 minutes after compound administration.
Tactile allodynia was measured using calibrated von Frey filaments (Stoelting, Wood Dale, Ill.) as described in Chaplan, S. R., F. W. Bach, J. W. Porgrel, J. M. Chung and T. L. Yaksh, 1994, Quantitative assessment of tactile allodynia in the rat paw, J. Neurosci. Methods, 53, 55. Rats were placed into inverted individual plastic cage (20×12.5×20 cm) on top of a suspended wire mesh grid, and acclimated to the test chambers for 20 minutes. The von Frey filaments were applied perpendicularly from underneath the cage through openings in the wire mesh floor directly to an area within 1-3 mm (immediately adjacent) of the incision, and then held in this position for approximately 8 seconds with enough force to cause a slight bend in the filament. Positive responses included an abrupt withdrawal of the hind paw from the stimulus, or flinching behavior immediately following removal of the stimulus. A 50% withdrawal threshold was determined using an up-down procedure as described in Dixon, W. J., 1980, Efficient analysis of experimental observations, Ann. Rev. Pharmacol. Toxicol., 20, 441. The effect on paw withdrawal latency of test compounds compared to vehicle control represents the ability of the test compound to reduce allodynia. An increase in the paw withdrawal latency represents an anti-allodynic effect (i.e., a decrease in pain).
Using the skin incisional model of postoperative pain, the effects of compound A, CB2 agonist (Z)—N-(5-tert-butyl-3-butylthiazol-2(3H)-ylidene)-5-chloro-2-methoxybenzamide, on allodynia was assessed two hours after surgery.
(§1) Using the skin incisional model of postoperative pain, the effects of CB2 agonist A were evaluated after the administration of vehicle or the CB1 antagonist rimonabant. This effect was compared with the administration of vehicle after the administration of vehicle or the CB1 antagonist rimonabant. A first dose, consisting of CB1 antagonist rimonabant (30 μmol/kg i.p.) or a vehicle (5% DMSO/PEG), was administered 15 minutes before a second dose, consisting of administration of CB2 agonist A (30 μmol/kg i.p.) or vehicle. Allodynia testing was conducted 30 minutes after administration of the second dose, either CB2 agonist A or vehicle.

[2] = system: spontaneous locomotor activity; assay: Measurement of locomotor activity (open field, horizontal activity); format: in vivo; conditions: rat; for horizontal locomotor activity, agonist after rimonabant: 30 μmol/kg i.p., rimonabant 30 μmol/kg i.p. 15 min before
Experimental: Adverse effects may also be determined by the Measurement of Locomotor Activity. Spontaneous activity is assessed in an open-field environment (42 (length)×42 (base)×40 cm (height); Piper Plastics, Libertyville, Ill.) situated inside Versamax/Digiscan monitors, each equipped with infrared sensors (AccuScan Instruments, Inc., Columbus, Ohio) in a dimly illuminated test room. Following administration of test compounds or vehicle control, rats are individually placed into the test chambers and horizontal (locomotion) activity is recorded for 30 min. A reduction in horizontal motor activity for a test compound compared to the effect of vehicle is a measure of adverse effects; the greater the reduction in activity, the greater the adverse effect. Data is analyzed by ANOVA followed by Fisher's Protected Least significant difference (PLSD) analysis as a post hoc comparison (JMP statistic database; SAS Institute, Inc., Cary, N.C.). A p<0.05 was considered significant.
These effects also indicate that the reduction in locomotor activity by CB2 agonist B results from its residual activation of the CB1 receptor.
as §1, with “the locomotor activity assay,” for “the skin incisional model of postoperative pain,”, “vehicle. Locomotor” for “vehicle. Allodynia”, “vehicle. […] CB2 agonist A administered after vehicle decreased horizontal locomotor activity by 91%.” for “vehicle.”

[3] = target: T1, human CB2 receptors (Homo sapiens, UniProt P34972); assay: CB2 radioligand binding assay ([3H]CP-55,940 competition)
T1 construct: expressed in transfected cells
T1 sequence (P34972 whole entry): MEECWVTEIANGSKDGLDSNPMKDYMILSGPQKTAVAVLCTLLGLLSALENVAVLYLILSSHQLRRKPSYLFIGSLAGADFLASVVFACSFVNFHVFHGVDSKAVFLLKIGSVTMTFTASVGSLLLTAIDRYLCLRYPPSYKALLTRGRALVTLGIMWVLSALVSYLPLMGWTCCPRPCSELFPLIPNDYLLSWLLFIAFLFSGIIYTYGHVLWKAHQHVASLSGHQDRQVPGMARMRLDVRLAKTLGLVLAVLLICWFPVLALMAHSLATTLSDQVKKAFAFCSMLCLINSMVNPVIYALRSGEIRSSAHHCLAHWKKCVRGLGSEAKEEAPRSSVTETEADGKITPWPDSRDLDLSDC
Experimental: To determine the selectivity (Ki) of the compounds of the present application for CB2 receptors relative to CB1 receptors, radioligand binding assays are performed, which are described herein.
For CB2 radioligand binding assays, HEK293 cells stably expressing human CB2 receptors were grown until a confluent monolayer was formed. Briefly, the cells were harvested and homogenized in TE buffer (50 mM Tris-HCl, 1 mM MgCl2, and 1 mM EDTA) using a polytron for 2×10 second bursts in the presence of protease inhibitors, followed by centrifugation at 45,000×g for 20 minutes. The final membrane pellet was re-homogenized in storage buffer (50 mM Tris-HCl, 1 mM MgCl2, and 1 mM EDTA and 10% sucrose) and frozen at −78° C. until used. Saturation binding reactions were initiated by the addition of membrane preparation (protein concentration of 5 μg/well for human CB2) into wells of a deep well plate containing [^3H]CP-55,940 (120 Ci/mmol, a nonselective CB agonist commercially available from Tocris) in assay buffer (50 mM Tris, 2.5 mM EDTA, 5 mM MgCl2, and 0.5 mg/mL fatty acid free BSA, pH 7.4). After 90 min incubation at 30° C., binding reaction was terminated by the addition of 300 μl/well of cold assay buffer followed by rapid vacuum filtration through a UniFilter-96 GF/C filter plates (pre-soaked in 1 mg/mL BSA for 2 hours). The bound activity was counted in a TopCount using Microscint-20. […]

CCCCn1cc(C(C)(C)C)s/c1=N\C(=O)c1cc(Cl)ccc1OC [compound A, (Z)—N-(5-tert-butyl-3-butylthiazol-2(3H)-ylidene)-5-chloro-2-methoxybenzamide]
analgesia (tactile allodynia), agonist after rimonabant ([1]; tested 30 min after second dose): equivalent efficacy
analgesia (tactile allodynia), agonist after rimonabant ([1]; tested 30 min after second dose, listed as CB2 agonist A): able to induce analgesia
analgesia (tactile allodynia), agonist after vehicle ([1]; 30 μmol/kg i.p. given 15 min after vehicle, tested 30 min after second dose): able to induce analgesia
withdrawal threshold for the incisional paw (allodynia) [1]: recovered
decrease of horizontal locomotor activity, agonist after vehicle ([2]; 30 μmol/kg i.p. after vehicle, tested 30 min after second dose): 91%
horizontal locomotor activity, agonist after rimonabant [2]: much reduced side effects
horizontal locomotor activity, agonist after rimonabant ([2]; listed as CB2 agonist A): able to block said decrease
Ki [3]: 1.8 nM

COCCn1c(C)c(C)s/c1=N\C(=O)C1C(C)(C)C1(C)C [compound B, (Z)—N-(3-(2-methoxyethyl)-4,5-dimethylthiazol-2(3H)-ylidene)-2,2,3,3-tetramethylcyclopropanecarboxamide]
withdrawal threshold for the incisional paw (allodynia) [1]: re-establishing withdrawal threshold
spontaneous locomotor activity, agonist alone ([2]; 30 and 45 μmol/kg i.p., tested 30 min after administration): significantly reduces spontaneous locomotor activity
spontaneous locomotor activity, agonist after rimonabant ([2]; rimonabant 30 μmol/kg i.p. 15 min before CB2 agonist B): reduction in locomotor activity was eliminated
Ki ([3]; HEK293 membranes expressing human CB2, 0.5 nM [3H]CP-55,940, read-out: Ki for CB2 receptors): 0.6 nM
